Like-named read-outs stand apart in the source and are kept apart here.
Tests used:
[1] = test system: rat aorta rings; assay: KCl-induced contraction of rat aorta rings (electromechanical coupling)
Procedure: The abdominal aorta was gently cleaned of adipose and connective tissues and cut into 3-mm wide rings. These were mounted in organ baths between two parallel, L-shaped, stainless-steel hooks, with one fixed in place and the other connected to an isometric transducer. Rings were allowed to equilibrate for 60 min in modified Krebs-Henseleit solution (composition in mM: 118 NaCl, 4.75 KCl, 1.19 KH2PO4, 1.19 MgSO4, 25 NaHCO3, 11.5 glucose, 2.5 CaCl2, gassed with a 95% O2–5% CO2 gas mixture to create a pH of 7.4) under a passive tension of 1 g. During this equilibration period, the solution was changed every 15 min. Isometric tension was recorded using a digital PowerLab data acquisition system (PowerLab 8/30; ADInstruments). Ring viability was assessed by recording the response to 0.3 µM phenylephrine and 60 mM KCl. Where needed, the endothelium was removed by gently rubbing the lumen of the ring with a forceps tip. This procedure was validated by adding 10 µM acetylcholine at the plateau of phenylephrine-induced contraction; a relaxation greater than 70% or less than 10% denoted the presence or absence of functional endothelium, respectively.
Aorta rings were pre-contracted pharmaco-mechanically using 0.3 µM phenylephrine and electromechanically using 25–30 mM or 60 mM KCl. Once the contraction reached a plateau, the compound was added cumulatively into the organ bath. […] The response was calculated as the percentage of phenylephrine- or KCl-induced contraction (taken as 100%).

[2] = target: T1, KCa1.1 channel (Rattus norvegicus, UniProt Q62976); assay: Whole-cell patch-clamp, K+ current through KCa1.1 channels (IKCa1.1) in tail artery myocytes; format: cell-based; conditions: 3, 10 and 30 µM cumulative; membrane potential 30–70 mV, Vh −40 mV
T1 construct: IKCa1.1 measured in tail artery myocytes; endogenous in cells; host or cells: freshly isolated rat tail main artery smooth muscle cells
Procedure: The tail main artery was dissected free of its connective tissue, and smooth muscle cells were freshly isolated under the following conditions. […] This solution was gently bubbled and stirred with a 95% O2–5% CO2 gas mixture, as previously described. Cells stored in 0.05 mM Ca^2+ external solution containing 20 mM taurine and 0.5 mg/mL BSA at 4 °C under normal air were used for experiments within two days after isolation.
An Axopatch 200B patch-clamp amplifier (Molecular Devices Corporation, Sunnyvale, CA, USA) was used to generate and apply voltage pulses to the clamped cells and record the corresponding membrane currents. Recording electrodes were pulled from borosilicate glass capillaries (WPI, Berlin, Germany) and fire-polished to obtain a pipette resistance of 2–4 MΩ, when filled with an internal solution. At the beginning of each experiment, the junction potential between the pipette and bath solution was electronically adjusted to zero. […]
K^+ current through the KCa1.1 channel (IKCa1.1) (registration period 500 ms) was measured over a range of test potentials, from −20 mV to 70 mV from a Vh of −40 mV. […] The current–voltage relationships were calculated based on the values recorded during each test pulse (leakage corrected offline). […]

[3] = test system: Langendorff perfused rat heart; assay: Langendorff perfused rat heart (LVP, CPP, ECG); conditions: for QRS (intraventricular conduction time): control 13.4 ± 0.7; for PQ (atrioventricular conduction time): control 37.8 ± 1.8; for QTc (corrected QT): control 72.97 ± 1.7; for RR (cycle length): control 231.4 ± 7.8; for HR (frequency): control 261.9 ± 9.6
Procedure: Spontaneously beating heart was retrogradely perfused via the aorta at a constant perfusion flow in a Langendorff apparatus (Radnoti, Dublin, Ireland) with a physiological salt solution containing (mM) NaCl 118, KCl 4.7, CaCl2 2.5, MgSO4 1.2, NaHCO3 25, KH2PO4 1.2, glucose 11.5, Na pyruvate 2, and EDTA 0.5, and bubbled with a 95% O2−5% CO2 gas mixture (pH 7.4), and kept at 37 °C, as described elsewhere. Hearts were allowed to equilibrate for at least 20 min before 7 exposure. Heart contractility was measured as left ventricle developed pressure (LVDP) using a deionized water-filled latex balloon, connected to a pressure transducer (BLPR, WPI, Berlin, Germany) and inserted into the left ventricular cavity through the mitral valve. A pressure transducer (BLPR, WPI, Berlin, Germany) was placed in the inflow line, to record coronary perfusion pressure (CPP), a measure of coronary vascular resistance. Two steel electrodes, one positioned on the left atrium and the other on the apex of the heart, were used to record the surface electrocardiogram. Heart rate (HR) and RR (cycle length), PQ (atrioventricular conduction time), QRS (intraventricular conduction time), and QT (ventricular depolarization and repolarization) intervals were measured. The digital PowerLab data acquisition system (PowerLab 8/30; ADInstruments, Castle Hill, Australia) and Chart Pro for Windows software v. 7.3.7 (PowerLab; ADInstruments, Castle Hill, Australia) were used to record and analyze LVP, CPP, and ECG. As the QT interval is affected by HR changes (e.g., it shortens when HR increases), Bazett's formula normalized to average rat RR (QTc = QT/(RR/f)1/2) was routinely used to correct it, thus avoiding confounding effects. In this study, “f” (the normalization factor according to the basal RR duration) was 231.4 ms, as this was the average cardiac cycle length.

T1 sequence (Q62976 whole entry): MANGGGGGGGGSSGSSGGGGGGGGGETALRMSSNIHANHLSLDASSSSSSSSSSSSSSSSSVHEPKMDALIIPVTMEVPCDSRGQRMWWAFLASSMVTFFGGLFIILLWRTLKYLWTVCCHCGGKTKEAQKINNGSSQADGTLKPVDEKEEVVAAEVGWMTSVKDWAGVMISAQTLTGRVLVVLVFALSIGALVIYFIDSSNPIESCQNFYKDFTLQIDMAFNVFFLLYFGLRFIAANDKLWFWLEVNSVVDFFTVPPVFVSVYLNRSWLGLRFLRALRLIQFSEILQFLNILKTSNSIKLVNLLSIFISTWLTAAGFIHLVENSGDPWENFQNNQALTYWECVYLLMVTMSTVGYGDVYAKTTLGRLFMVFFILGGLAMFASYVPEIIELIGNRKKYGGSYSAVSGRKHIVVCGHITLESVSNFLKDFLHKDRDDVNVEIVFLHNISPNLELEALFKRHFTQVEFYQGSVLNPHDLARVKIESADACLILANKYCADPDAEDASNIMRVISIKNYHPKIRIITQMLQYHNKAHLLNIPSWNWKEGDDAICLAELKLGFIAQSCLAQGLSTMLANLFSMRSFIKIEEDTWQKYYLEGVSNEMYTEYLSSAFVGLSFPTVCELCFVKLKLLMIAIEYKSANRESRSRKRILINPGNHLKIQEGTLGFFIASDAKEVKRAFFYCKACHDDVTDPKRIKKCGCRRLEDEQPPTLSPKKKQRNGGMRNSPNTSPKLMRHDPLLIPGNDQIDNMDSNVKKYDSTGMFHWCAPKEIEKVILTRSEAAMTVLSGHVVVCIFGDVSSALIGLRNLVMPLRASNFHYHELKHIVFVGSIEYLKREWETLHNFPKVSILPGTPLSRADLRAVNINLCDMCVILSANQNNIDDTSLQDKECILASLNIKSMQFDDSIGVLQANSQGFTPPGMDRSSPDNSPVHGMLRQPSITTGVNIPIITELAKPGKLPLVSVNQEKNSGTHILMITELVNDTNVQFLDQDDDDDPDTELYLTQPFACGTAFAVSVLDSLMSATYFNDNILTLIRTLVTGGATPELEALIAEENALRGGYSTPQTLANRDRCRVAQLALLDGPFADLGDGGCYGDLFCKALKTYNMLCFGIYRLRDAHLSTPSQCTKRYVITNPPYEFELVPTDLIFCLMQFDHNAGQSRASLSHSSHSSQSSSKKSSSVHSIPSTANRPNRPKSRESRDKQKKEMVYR
T1 sequence (P97678 whole entry partner): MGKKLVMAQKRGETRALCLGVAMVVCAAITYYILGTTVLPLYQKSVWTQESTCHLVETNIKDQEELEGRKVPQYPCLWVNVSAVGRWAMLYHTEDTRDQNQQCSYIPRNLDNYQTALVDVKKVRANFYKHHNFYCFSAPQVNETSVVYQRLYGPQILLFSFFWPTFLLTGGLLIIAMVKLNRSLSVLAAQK

Work on `CC1(C)CCC[C@]2(C)[C@@H](CC(=O)Nc3ccccc3-n3cccc3)[C@](C)(O)CC[C@@H]12` [Compound 7] yielded an Emax ([1]; endothelium-denuded rat aorta rings pre-contracted by 25 mM KCl, read-out: Emax (percent maximal inhibition), KCl 25 mM-induced contraction) of 94.3 ± 4.5%, an IC50 ([1]; endothelium-denuded rat aorta rings pre-contracted by 25 mM KCl, read-out: IC50, KCl 25 mM-induced contraction) of 0.2 ± 0.1 µM and an Emax ([1]; endothelium-denuded rat aorta rings pre-contracted by 60 mM KCl, read-out: Emax (percent maximal inhibition), KCl 60 mM-induced contraction) of 89.7 ± 1.9%. For the same compound, the IC50 ([1]; endothelium-denuded rat aorta rings pre-contracted by 60 mM KCl, read-out: IC50, KCl 60 mM-induced contraction) was 9.3 ± 2 µM, the “Effect on IKCa1.1” value [2] was “significant concentration-dependent stimulation of the current” and the “QRS (intraventricular conduction time)” value ([3]; 1 µM) was 13.6 ± 0.5 ms. The “PQ (atrioventricular conduction time)” value ([3]; 1 µM) was 37.2 ± 2.0 ms, the “QTc (corrected QT)” value ([3]; 1 µM) was 71.59 ± 0.8 ms and the “RR (cycle length)” value ([3]; 1 µM) was 230.8 ± 7.4 ms. The “HR (frequency)” value ([3]; 1 µM) was 261.8 ± 9.4 bpm, the “QRS (intraventricular conduction time)” value ([3]; 3 µM) was 14.0 ± 0.6 ms and the “PQ (atrioventricular conduction time)” value ([3]; 3 µM) was 37.4 ± 1.9 ms. The “QTc (corrected QT)” value ([3]; 3 µM) was 72.65 ± 1.3 ms, the “RR (cycle length)” value ([3]; 3 µM) was 231.8 ± 7.1 ms and the “HR (frequency)” value ([3]; 3 µM) was 256.9 ± 8.3 bpm. The “QRS (intraventricular conduction time)” value ([3]; 10 µM) was 13.9 ± 0.6 ms, the “PQ (atrioventricular conduction time)” value ([3]; 10 µM) was 39.0 ± 1.9 ms and the “QTc (corrected QT)” value ([3]; 10 µM) was 73.31 ± 1.2 ms. The “RR (cycle length)” value ([3]; 10 µM) was 236.4 ± 7.1 ms, the “HR (frequency)” value ([3]; 10 µM) was 255.3 ± 8.0 bpm and the “QRS (intraventricular conduction time)” value ([3]; 30 µM) was 15.2 ± 0.8 ms. The “PQ (atrioventricular conduction time)” value ([3]; 30 µM) was 42.2 ± 2.7 ms, the “QTc (corrected QT)” value ([3]; 30 µM) was 75.13 ± 1.7 ms and the “RR (cycle length)” value ([3]; 30 µM) was 249.8 ± 10.7 ms. For the same compound, the “HR (frequency)” value ([3]; 30 µM) was 242.8 ± 11.5 bpm, the “Effect on coronary perfusion pressure (CPP)” value ([3]; 1–30 µM, n = 5) was “significantly decreased CPP” and the “Effect on left ventricular pressure (LVP)” value ([3]; 1–30 µM, n = 5) was “leaving LVP unaltered”.

— PMC9410420, “Novel Labdane Diterpenes-Based Synthetic Derivatives: Identification of a Bifunctional Vasodilator That Inhibits CaV1.2 and Stimulates KCa1.1 Channels” (Marine Drugs, 2022)
